Our source for the IC50 values is patent US9556179B2 (BRISTOL-MYERS SQUIBB COMPANY, priority 2012, dated 2017).

One may read the IC50 as the concentration that gives 50% inhibition.

One assay concerns the target CK1ε (Homo sapiens (Human), UniProt P49674). As to the kind of experiment: CK1ε kinase assay (Caliper LABCHIP electrophoretic separation of fluoresceinated peptide substrate and product). Type of assay: biochemical. Particulars: 200 pM enzyme, 50 μM ATP, 22 hours at room temperature. A digest of the protocol:
(§1)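 Reactions ran 22 hours at room temperature and were stopped with EDTA. Phosphorylated product and unphosphorylated substrate were then separated electrophoretically. Compounds were tested at eleven concentrations, and IC50 values came from non-linear regression.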

In a further assay the target is CK1δ (Homo sapiens (Human), UniProt P48730). The assay can be described thus: CK1δ kinase assay (Caliper LABCHIP electrophoretic separation of fluoresceinated peptide substrate and product). Format: biochemical. Particulars: 200 pM enzyme, 50 μM ATP, 22 hours at room temperature. In outline:
as §1

Molecules are shown by their SMILES. Structures can show the parent of a compound that is named as a salt.

CK1δ, sequence (P48730 whole entry): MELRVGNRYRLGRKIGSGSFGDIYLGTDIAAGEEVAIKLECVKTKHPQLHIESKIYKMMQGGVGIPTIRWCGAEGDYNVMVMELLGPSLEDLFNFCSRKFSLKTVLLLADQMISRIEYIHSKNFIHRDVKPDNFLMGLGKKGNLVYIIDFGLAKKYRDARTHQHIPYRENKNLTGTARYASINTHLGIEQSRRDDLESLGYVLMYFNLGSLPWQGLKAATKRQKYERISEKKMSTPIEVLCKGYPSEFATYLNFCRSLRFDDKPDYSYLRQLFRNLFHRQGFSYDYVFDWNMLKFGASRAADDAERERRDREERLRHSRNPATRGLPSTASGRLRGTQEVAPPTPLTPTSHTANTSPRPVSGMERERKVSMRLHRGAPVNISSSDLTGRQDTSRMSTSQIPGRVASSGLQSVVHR
CK1ε, sequence (P49674 whole entry): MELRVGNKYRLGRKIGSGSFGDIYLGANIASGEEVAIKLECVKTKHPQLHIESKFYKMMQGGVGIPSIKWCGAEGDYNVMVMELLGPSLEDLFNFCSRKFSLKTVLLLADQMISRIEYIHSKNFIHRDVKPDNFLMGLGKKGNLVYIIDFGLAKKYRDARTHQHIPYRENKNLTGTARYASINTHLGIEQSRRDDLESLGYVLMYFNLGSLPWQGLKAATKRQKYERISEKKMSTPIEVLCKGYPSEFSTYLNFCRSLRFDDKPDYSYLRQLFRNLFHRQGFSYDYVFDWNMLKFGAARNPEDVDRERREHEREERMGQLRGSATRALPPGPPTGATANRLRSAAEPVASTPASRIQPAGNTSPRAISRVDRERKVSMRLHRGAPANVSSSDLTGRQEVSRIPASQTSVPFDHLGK

On to `O=C(Nc1cn2nc(-c3c(-c4ccc(F)cc4)nc4n3CCC4)ccc2n1)c1ccnc(F)c1` [Compound 436, 2-Fluoro-N-(6-(2-(4-fluorophenyl)-6,7-dihydro-5H-pyrrolo[1,2-a]imidazol-3-yl)imidazo[1,2-b]pyridazin-2-yl)isonicotinamide], for which the IC50 at CK1ε came out at 2 nM; on CK1δ, 0.4 nM.

`O=C(Nc1cn2nc(-c3c(-c4ccc(F)cc4)ncn3C3CCN(CCC(F)(F)F)CC3)ccc2n1)c1ccncc1` [Compound 4, N-(6-(4-(4-fluorophenyl)-1-(1-(3,3,3-trifluoropropyl)piperidin-4-yl)-1H-imidazol-5-yl)imidazo[1,2-b]pyridazin-2-yl)isonicotinamide]: the IC50 against CK1ε is 2.25 nM; against CK1δ, 0.302 nM.

As for `O=C(Cn1ccnc1)Nc1cn2nc(-c3c(-c4ccc(F)cc4)nc4ccccn34)ccc2n1` [Compound 214, N-(6-(2-(4-fluorophenyl)imidazo[1,2-a]pyridin-3-yl)imidazo[1,2-b]pyridazin-2-yl)-2-(1H-imidazol-1-yl) acetamide], the IC50 at CK1ε was 22.3 nM; at CK1δ, 2.19 nM.

As to `Cc1nc(-c2ccc(F)cc2)c(-c2ccc3nc(NC(=O)c4ccnc(F)c4)c(C)n3n2)n1C` [Compound 413, 2-Fluoro-N-(6-(4-(4-fluorophenyl)-1,2-dimethyl-1H-imidazol-5-yl)-3-methylimidazo[1,2-b]pyridazin-2-yl)isonicotinamide], the IC50 turned out to be 19.6 nM at CK1ε and 1.14 nM against CK1δ.

As for `Cc1nc(-c2ccc(F)cc2)c(-c2ccc3nc(NC(=O)Nc4cccc(C#N)c4)cn3n2)n1C` [Compound 410, 1-(3-cyanophenyl)-3-(6-(4-(4-fluorophenyl)-1,2-dimethyl-1H-imidazol-5-yl)imidazo[1,2-b]pyridazin-2-yl)urea], the IC50 amounted to 151 nM against CK1ε and 7.57 nM on CK1δ.

In the case of `Cc1nc(-c2ccncc2)sc1C(=O)Nc1cn2nc(-c3c(-c4ccc(F)cc4)nc(C)n3C)ccc2n1` [Compound 308, N-(6-(4-(4-fluorophenyl)-1,2-dimethyl-1H-imidazol-5-yl)imidazo[1,2-b]pyridazin-2-yl)-4-methyl-2-(pyridin-4-yl) thiazole-5-carboxamide], the results for the IC50 at CK1ε and against CK1δ were 5.26 nM and 0.322 nM, respectively.

Regarding `Cc1cc(-c2nc(C)n(CC(F)F)c2-c2ccc3nc(NC(=O)c4ccnc(F)c4)cn3n2)ccc1F` [Compound 297], the results for the IC50 against CK1ε and at CK1δ were 2.26 nM and 0.354 nM, respectively.

Turning to `CS(=O)(=O)N1CCn2c(nc(-c3ccc(F)cc3)c2-c2ccc3nc(NC(=O)c4ccnc(F)c4)cn3n2)C1` [Compound 476, 2-Fluoro-N-(6-(2-(4-fluorophenyl)-7-(methylsulfonyl)-5,6,7,8-tetrahydroimidazo[1,2-a]pyrazin-3-yl)imidazo[1,2-b]pyridazin-2-yl)isonicotinamide], the IC50 against CK1ε was determined as 2.5 nM; at CK1δ, 0.3 nM.

`O=C(Nc1cn2nc(-c3c(-c4ccc(F)cc4)ncn3CCN3CCOCC3)ccc2n1)c1ccnc2ccccc12` [Compound 166, N-(6-(4-(4-fluorophenyl)-1-(2-morpholinoethyl)-1H-imidazol-5-yl)imidazo[1,2-b]pyridazin-2-yl)quinoline-4-carboxamide]: the IC50 is 1.3 nM against CK1ε and 0.192 nM against CK1δ.

In the case of `COc1ccc(-c2nc(C(=O)Nc3cn4nc(-c5c(-c6ccc(F)cc6)nc6ccccn56)ccc4n3)cs2)cc1` [Compound 189, N-(6-(2-(4-fluorophenyl)imidazo[1,2-a]pyridin-3-yl)imidazo[1,2-b]pyridazin-2-yl)-2-(4-methoxyphenyl) thiazole-4-carboxamide, 3 HCl], the IC50 at CK1ε is 32.1 nM; against CK1δ it was 17.1 nM.

In the case of `O=C(Nc1cn2nc(-c3c(-c4ccc(F)cc4)ncn3C3CC3)ccc2n1)c1ccncc1` [Compound 427, N-(6-(1-Cyclopropyl-4-(4-fluorophenyl)-1H-imidazol-5-yl)imidazo[1,2-b]pyridazin-2-yl)isonicotinamide], the 50% inhibitory concentration (IC50) against CK1ε was found to be 6.5 nM; against CK1δ, 0.7 nM.

Consider `NC(=O)Cn1cnc(-c2ccc(F)cc2)c1-c1ccc2nc(NC(=O)c3ccnc(F)c3)cn2n1` [Compound 268, N-(6-(1-(2-amino-2-oxoethyl)-4-(4-fluorophenyl)-1H-imidazol-5-yl)imidazo[1,2-b]pyridazin-2-yl)-2-fluoroisonicotinamide], for which the results for the IC50 against CK1ε and at CK1δ were 7.57 nM and 0.419 nM, respectively.

For the molecule `Cc1nc(-c2ccc(F)cc2)c(-c2ccc3nc(NC(=O)c4cc5ccccc5cn4)cn3n2)n1C` [Compound 311, N-(6-(4-(4-fluorophenyl)-1,2-dimethyl-1H-imidazol-5-yl)imidazo[1,2-b]pyridazin-2-yl) isoquinoline-3-carboxamide], the IC50 at CK1ε was 46.9 nM; against CK1δ, 33.9 nM.

On to `Cc1nc(-c2ccc(F)cc2)c(-c2ccc3nc(NC(=O)c4ccc(C#N)cc4)cn3n2)n1C` [Compound 356, 4-cyano-N-(6-(4-(4-fluoro-phenyl)-1,2-dimethyl-1H-imidazol-5-yl)imidazo[1,2-b]pyridazin-2-yl)benzamide], for which the IC50 against CK1ε stood at 1.91 nM; on CK1δ, 0.513 nM.

In the case of `CN1CCC(n2cnc(-c3ccc(F)cc3)c2-c2ccc3nc(NC(=O)c4ccnc(F)c4)cn3n2)CC1` [Compound 11], the IC50 on CK1ε came out at 0.654 nM; on CK1δ, 0.847 nM.

Regarding `Cc1nc(-c2ccc(F)cc2)c(-c2ccc3nc(NC(=O)c4ccon4)cn3n2)n1C` [Compound 375, N-(6-(4-(4-fluorophenyl)-1,2-dimethyl-1H-imidazol-5-yl)imidazo[1,2-b]pyridazin-2-yl)-3-isoxazolecarboxamide], the IC50 was determined as 16.3 nM against CK1ε and 1.91 nM against CK1δ.

Take `O=C1CN(CCn2cnc(-c3ccc(F)cc3)c2-c2ccc3nc(NC(=O)c4ccnc(F)c4)cn3n2)CCN1` [Compound 267, 2-fluoro-N-(6-(4-(4-fluorophenyl)-1-(2-(3-oxo-1-piperazinyl)ethyl)-1H-imidazol-5-yl)imidazo[1,2-b]pyridazin-2-yl)isonicotinamide]: the IC50 against CK1ε was determined as 1.77 nM; on CK1δ, 0.287 nM.

In the case of `CC(C)(C)c1cc(C(=O)Nc2cn3nc(-c4c(-c5ccc(F)cc5)nc5ccccn45)ccc3n2)ccn1` [Compound 197, 2-(tert-butyl)-N-(6-(2-(4-fluorophenyl)imidazo[1,2-a]pyridin-3-yl)imidazo[1,2-b]pyridazin-2-yl)isonicotinamide], the IC50 at CK1ε came to 8.98 nM; against CK1δ it was 2.99 nM.

Take `O=C(Nc1cn2nc(-c3c(-c4ccc(F)cc4)nc4ccccn34)ccc2n1)c1ccncc1` [Compound 186, N-(6-(2-(4-fluorophenyl)imidazo[1,2-a]pyridin-3-yl)imidazo[1,2-b]pyridazin-2-yl)isonicotinamide]: the IC50 on CK1ε was determined as 11.4 nM; against CK1δ, 10.3 nM.

Turning to `CC(C)(F)C(=O)N1CCC(n2cnc(-c3ccc(F)cc3)c2-c2ccc3nc(NC(=O)c4ccnc(F)c4)cn3n2)CC1` [Compound 64, 2-fluoro-N-(6-(1-(1-(2-fluoro-2-methylpropanoyl)piperidin-4-yl)-4-(4-fluorophenyl)-1H-imidazol-5-yl)imidazo[1,2-6]pyridazin-2-yl)isonicotinamide], the concentration for half-maximal inhibition (IC50) is 0.798 nM against CK1ε and 0.361 nM at CK1δ.

Take `O=C(Nc1cn2nc(-c3c(-c4ccc(F)cc4)ncn3C3CCN(Cc4cocn4)CC3)ccc2n1)c1ccnc(F)c1` [Compound 17, 2-fluoro-N-(6-(4-(4-fluorophenyl)-1-(1-(oxazol-4-ylmethyl)piperidin-4-yl)-1H-imidazol-5-yl)imidazo[1,2-b]pyridazin-2-yl)isonicotinamide]: the results for the IC50 at CK1ε and at CK1δ were 21.8 nM and 2.14 nM, respectively.

As to `CN1CCC(n2cnc(-c3ccc(F)cc3)c2-c2ccc3nc(NC(=O)c4ccncc4)cn3n2)CC1` [Compound 2], the values for the IC50 on CK1ε and against CK1δ were 2.46 nM and 2.54 nM, respectively.

As to `Cc1nc(-c2ccc(F)cc2)c(-c2ccc3nc(NC(=O)c4cncs4)cn3n2)n1C` [Compound 303, N-(6-(4-(4-fluorophenyl)-1,2-dimethyl-1H-imidazol-5-yl)imidazo[1,2-b]pyridazin-2-yl)thiazole-5-carboxamide], the IC50 at CK1ε stood at 4.4 nM; against CK1δ, 3.9 nM.

As to `Cc1cc(C(=O)Nc2cn3nc(-c4c(-c5ccc(F)cc5)nc5ccccn45)ccc3n2)on1` [Compound 179, N-(6-(2-(4-fluorophenyl)imidazo[1,2-a]pyridin-3-yl)imidazo[1,2-b]pyridazin-2-yl)-3-methyl-5-isoxazolecarboxamide], the IC50 against CK1ε is 2.93 nM; at CK1δ it was 0.206 nM.

As for `Cc1nc(-c2ccc(F)cc2)c(-c2ccc3nc(NC(=O)[C@@H]4CCC(=O)N4)cn3n2)n1C` [Compound 376, N-(6-(4-(4-fluorophenyl)-1,2-dimethyl-1H-imidazol-5-yl)imidazo[1,2-b]pyridazin-2-yl)-5-oxo-L-prolinamide], the IC50 is 78.1 nM on CK1ε and 8.88 nM against CK1δ.

For the molecule `O=C(Nc1cn2nc(-c3c(-c4ccc(F)cc4)nc4ccc(N5CCOCC5)nn34)ccc2n1)c1ccncc1` [Compound 226, N-(2-(4-fluorophenyl)-6-morpholino-[3,6′-biimidazo[1,2-b]pyridazin]-2′-yl)isonicotinamide], the IC50 worked out at 10.1 nM against CK1ε and 4.94 nM at CK1δ.

With `O=C(Nc1cn2nc(-c3c(-c4ccc(F)cc4)ncn3C3CCN(CCN4CCOCC4)CC3)ccc2n1)c1ccnc(F)c1` [Compound 23, 2-fluoro-N-(6-(4-(4-fluorophenyl)-1-(1-(2-morpholinoethyl)piperidin-4-yl)-1H-imidazol-5-yl)imidazo[1,2-b]pyridazin-2-yl)isonicotinamide], the IC50 amounted to 0.675 nM against CK1ε and 0.183 nM against CK1δ.

For the molecule `Cn1nccc1C(=O)Nc1cn2nc(-c3c(-c4ccc(F)cc4)nc4ccccn34)ccc2n1` [Compound 180, N-(6-(2-(4-fluorophenyl)imidazo[1,2-a]pyridin-3-yl)imidazo[1,2-b]pyridazin-2-yl)-1-methyl-1H-pyrazole-5-carboxamide], the IC50 at CK1ε stood at 12.1 nM; against CK1δ, 1.6 nM.
